Measurements reported in PubChem BioAssay (NCI).
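Results reflect a 48-hour exposure of cells in 96-well plates to compound at five concentrations. GI50 marks 50% less growth. At the TGI there is no net growth.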

How the values were obtained:
Experiment in all cases: DTP human tumour cell line panel, 48 h
[1] = system: CCRF-CEM leukemia
[2] = system: PC-3 prostate
[3] = system: UACC-257 melanoma
[4] = system: KM12 colon
[5] = system: TK-10 renal
[6] = system: NCI-H522 lung
[7] = system: IGROV1 ovarian
[8] = system: LOX IMVI melanoma
[9] = system: SK-MEL-2 melanoma
[10] = system: T-47D breast

Structure (SMILES) | TGI [1] [µM] | TGI [2] [µM] | TGI [3] [µM] | TGI [4] [µM] | TGI [5] [µM] | TGI [6] [µM] | TGI [7] [µM] | TGI [8] [µM] | TGI [9] [µM] | TGI [10] [µM] | GI50 [1] [µM] | GI50 [3] [µM] | GI50 [4] [µM] | GI50 [5] [µM] | GI50 [6] [µM] | GI50 [7] [µM] | GI50 [10] [µM] | GI50 [8] [µM] | GI50 [9] [µM] | GI50 [2] [µM]
CC(C)(O)CO/N=C1\C(c2c(O)[nH]c3ccccc23)=Nc2ccccc21 | 6.54 | 12.4 | > 96.4 | 4.71 | 8.68 | > 47.8 | 13.9 | > 24.3 | 3.2 |  |  |  |  |  |  |  |  |  |  | 
C/C=C1/CN2CCC34c5ccccc5N(C)C23C2CC1C4(C(=O)OC)C(O)O2 (configuration not stated) | > 100 | > 100 | > 100 | > 100 | > 100 | > 100 | > 100 | > 100 | > 100 | > 100 |  |  |  |  |  |  |  |  |  | 
CNS(=O)(=O)c1ccc2[nH]c(O)c(C3=Nc4ccccc4C3=O)c2c1 | > 100 | > 100 | > 100 |  | > 100 | > 100 | > 100 | > 100 | > 100 | > 100 |  |  |  |  |  |  |  |  |  | 
Cc1ccc([N+](=O)[O-])cc1S(=O)(=O)Nc1ccc(C2=NN(C(=O)c3ccccc3)C(c3cccs3)C2)cc1 (configuration not stated) | > 100 | > 100 | 72.9 | > 100 | 75.1 | 70.8 | > 100 | > 100 | 39.5 | 84.2 |  |  |  |  |  |  |  |  |  | 
N#CCCOCN(CO)c1nc(N(CO)COCCC#N)nc(N(CO)COCCC#N)n1 | 58 |  | 63.9 | > 100 | 91.2 | 47.5 | > 100 | > 100 | 38.6 |  |  |  |  |  |  |  |  |  |  | 
NC(=O)Nc1ccc(C(=O)NCCCNC(=O)c2ccc(NC(N)=O)cc2)cc1 | > 100 | > 100 | > 100 | > 100 | > 100 | > 100 | > 100 | > 100 | > 100 | > 100 |  |  |  |  |  |  |  |  |  | 
CCCC1=C(C(=O)OCC)C(c2ccccc2OC)C(C#N)=C(N)O1 (configuration not stated) | 42.1 |  | > 100 | > 100 | > 100 | 60.5 | 36.4 | > 100 | > 100 | > 100 | 19.4 | 65.5 | 21.1 | 46.1 | 25.5 | 14.7 | 43.4 | 29.9 | > 100 | 
Cc1c(NC(=O)c2cc([N+](=O)[O-])cc([N+](=O)[O-])c2)c(=O)n(-c2ccccc2)n1C | > 100 | > 100 | > 100 | > 100 | > 100 |  | > 100 | > 100 | > 100 |  |  |  |  |  |  |  |  |  |  | 
C[C@H](N[C@H]1CCC[C@]1(O)C#Cc1ccc2c(c1)OCO2)c1ccccc1 | > 25 | > 25 | > 25 | > 25 | > 25 |  | > 25 | > 25 | > 25 | > 25 |  |  |  |  |  |  |  |  |  | 
O=C(NCCNc1nccc(-c2c(-c3cccc(O)c3)nc3sccn23)n1)Nc1cccc(C(F)(F)F)c1 | 13.7 | 12.6 | 6.94 | 6.98 | 11.1 | 5 | 13.1 | 26.2 | 6.07 | 25.6 | 3.25 | 2.51 | 2.78 | 3.66 | 2.11 | 3.48 | 6.52 | 4.05 | 2.8 | 2.94
COc1cc2c(cc1OC)C1Cc3cc(OC)c(OC)cc3C(C2)O1 | > 100 | > 100 | > 100 | > 100 | > 100 |  | > 100 | > 100 | > 100 | > 100 |  |  |  |  |  |  |  |  |  | 
COc1ccccc1/C=C/c1c(N)ncnc1Nc1cccc(Cl)c1 | 1.12 | 0.97 | 35 | > 100 | 44.1 | 30.5 | 27.7 |  | 36.5 | > 100 |  |  |  |  |  |  |  |  |  | 
N#Cc1c(-c2cccc(Cl)c2)cc(-c2ccc(Cl)cc2)nc1N | 48.4 | 49.2 | 36.1 | 80.7 | 52.2 | 30.8 | 24.4 | 31.5 | 36.7 | > 100 |  |  |  |  |  |  |  |  |  | 
Cc1ccc2ccc3ccc(C)nc3c2n1 | > 100 | > 100 | > 100 | > 100 | > 100 | > 100 | > 100 | > 100 | > 100 | > 100 |  |  |  |  |  |  |  |  |  | 
COc1c(O)c(O)c2c(c1O)C(=O)c1cc(C)cc(O)c1C2=O | > 100 | > 100 | > 100 | > 100 | > 100 | 48.1 | > 100 | > 100 | > 100 | > 100 |  |  |  |  |  |  |  |  |  | 
Cc1c2cc[n+](C)cc2c(C)c2c1[nH]c1ccc(Cl)cc12 | 26.5 | > 43.2 | 62.3 | 35.5 | 61.3 | 2.38 | 38.2 | 77.8 | 9.6 | 14.8 |  |  |  |  |  |  |  |  |  | 
C[C@@H](CO)C1=CC(C#C[Si](C)(C)C)N(C(=O)Oc2ccccc2)c2ccccc21 (some centres not stated) | 72.6 | 64.1 | 38.3 | 34.1 | 79.5 | 33.9 | 36.4 | 32.4 | 35.3 | 51.1 |  |  |  |  |  |  |  |  |  | 
CN=C(N)/N=C(\N)Nc1cc2ccccc2c2ccccc12 | 26.1 | 29.5 | 30.9 | 34.6 | 26 | 26.2 | 35.5 | 29.7 | 32.3 | 40.5 |  |  |  |  |  |  |  |  |  | 
CCOC(=O)C(=O)Nc1c(CC)cccc1C(C)CC (configuration not stated) | > 100 |  | > 100 | > 100 | > 100 | > 100 | > 100 | > 100 | > 100 |  |  |  |  |  |  |  |  |  |  | 
CSc1ccc(-c2cc(-c3nc4ccccc4[nH]3)nc(N)c2C#N)cc1 | 80.1 | 98.7 | 39.4 | 71.2 | 99.7 | 46.8 | 55.9 | 44 | 34.2 | 54.7 |  |  |  |  |  |  |  |  |  | 
c1ccc(CCN2CCOCC2)nc1 | > 100 | > 100 | > 100 | > 100 | > 100 | > 100 | > 100 | > 100 | > 100 | > 100 |  |  |  |  |  |  |  |  |  | 
